The values that follow come from patent publication US20240238423A9, “TETRAHYDROISOQUINOLINE HETEROBIFUNCTIONAL BCL-XL DEGRADERS” (Treeline Biosciences, Inc., priority 2022, published 2024).

This assay has as its target T1, Human BCL-XL protein (N-terminal HiBiT tagged BCL-XL in HT1080 cells) (Homo sapiens, UniProt Q07817).
T1 construct: expressed in transfected cells; host or cells: HT-1080 (ATCC CCL-121), stably transduced with lentivirus pLV-UBC-N-HiBiT-BCL-XL-PGK-puro and selected with puromycin
In words: HiBiT based degradation assay. The class given is cell-based. The following applies: HT1080 cells expressing HiBiT-BCL-XL, 24 h; for Ymin (24 h): BCL-XL degradation normalized with DMSO control; for DC50: BCL-XL degradation, read-out: EC50 (24 h). The gist of the method:
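This HiBiT degradation assay measured loss of BCL-XL in HT1080 cells that stably express an N-terminal HiBiT-BCL-XL fusion delivered by lentivirus. Cells were added to compound-spotted 384-well plates, and luminescence was read on a PHERAstar FSX reader. Signal was expressed relative to DMSO controls, curves were fitted by four-parameter logistic regression, and for hook-shaped curves the Ymin point served as the bottom plateau when calculating EC50.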
A general note: With HiBiT, luminescence reflects the tagged protein that the partner subunit can reach.

Structures are written as SMILES.

T1 sequence (Q07817 whole entry): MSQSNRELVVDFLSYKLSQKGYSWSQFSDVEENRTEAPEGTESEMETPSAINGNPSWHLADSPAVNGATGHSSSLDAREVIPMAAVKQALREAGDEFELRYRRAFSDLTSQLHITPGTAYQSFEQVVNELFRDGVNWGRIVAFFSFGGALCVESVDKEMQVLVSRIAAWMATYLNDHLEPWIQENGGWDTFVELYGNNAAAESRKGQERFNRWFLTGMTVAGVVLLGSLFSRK

On to `Cc1c(OCCCN2CCN(CC(=O)Nc3cccc4c(C5CCC(=O)NC5=O)nn(C)c34)C[C@H]2C(F)(F)F)cccc1-c1ccc(N2CCc3cccc(C(=O)Nc4nc5ccccc5s4)c3C2)nc1C(=O)O` (stereo partly drawn) [Compound 246b, 6-(8-(benzo[d]thiazol-2-ylcarbamoyl)-3,4-dihydroisoquinolin-2(1H)-yl)-3-(3-(3-((2S)-4-(2-((3-(2,6-dioxopiperidin-3-yl)-1-methyl-1H-indazol-7-yl)amino)-2-oxoethyl)-2-(trifluoromethyl)piperazin-1-yl)propoxy)-2-methylphenyl)picolinic acid], for which the “Ymin (24 h)” value is given as “B (50% ≤ Ymin < 70%)” and the DC50 is less than 100 nM.

On to `Cc1c(OCCCC2CCN(CC3CCN(c4ccc5c(C6CCC(=O)NC6=O)nn(C)c5c4)CC3)CC2)cccc1-c1ccc(N2CCc3cccc(C(=O)Nc4nc5ccccc5s4)c3C2)nc1C(=O)O` (stereo not drawn) [Compound 247, 6-[8-(1,3-benzothiazol-2-ylcarbamoyl)-3,4-dihydro-1H-isoquinolin-2-yl]-3-[3-[3-[1-[[1-[3-(2,6-dioxo-3-piperidyl)-1-methyl-indazol-6-yl]-4-piperidyl]methyl]-4-piperidyl]propoxy]-2-methyl-phenyl]pyridine-2-carboxylic acid], for which the “Ymin (24 h)” value is reported as “A (Ymin < 50%)” and the DC50 was less than 100 nM.

Turning to `Cc1c(OCCC2CCN(CCN3CCC(c4ccc5c(C6CCC(=O)NC6=O)nn(C)c5c4)CC3)CC2)cccc1-c1ccc(N2CCc3cccc(C(=O)Nc4nc5ccccc5s4)c3C2)nc1C(=O)O` (stereo not drawn) [Compound 248, 6-[8-(1,3-benzothiazol-2-ylcarbamoyl)-3,4-dihydro-1H-isoquinolin-2-yl]-3-[3-[2-[1-[2-[4-[3-(2,6-dioxo-3-piperidyl)-1-methyl-indazol-6-yl]-1-piperidyl]ethyl]-4-piperidyl]ethoxy]-2-methyl-phenyl]pyridine-2-carboxylic acid], the “Ymin (24 h)” value was “A (Ymin < 50%)” and the DC50 is less than 100 nM.

For the molecule `Cc1c(OCCC2CCN(CCN3CCC(c4cccc5c(C6CCC(=O)NC6=O)nn(C)c45)CC3)CC2)cccc1-c1ccc(N2CCc3cccc(C(=O)Nc4nc5ccccc5s4)c3C2)nc1C(=O)O` (stereo not drawn) [Compound 249, 6-[8-(1,3-benzothiazol-2-ylcarbamoyl)-3,4-dihydro-1H-isoquinolin-2-yl]-3-[3-[2-[1-[2-[4-[3-(2,6-dioxo-3-piperidyl)-1-methyl-indazol-7-yl]-1-piperidyl]ethyl]-4-piperidyl]ethoxy]-2-methyl-phenyl] pyridine-2-carboxylic acid], the “Ymin (24 h)” value is given as “A (Ymin < 50%)” and the DC50 was less than 100 nM.

As for `Cc1cc(O[C@H]2CC[C@H](CCCN3CCN(c4cccc5c(C6CCC(=O)NC6=O)nn(C)c45)CC3)CC2)ccc1-c1ccc(N2CCc3cccc(C(=O)Nc4nc5ccccc5s4)c3C2)nc1C(=O)O` (stereo partly drawn) [Compound 250a, 6-(8-(benzo[d]thiazol-2-ylcarbamoyl)-3,4-dihydroisoquinolin-2(1H)-yl)-3-(4-(((1s,4r)-4-(3-(4-(3-(2,6-dioxopiperidin-3-yl)-1-methyl-1H-indazol-7-yl)piperazin-1-yl)propyl)cyclohexyl)oxy)-2-methylphenyl)picolinic acid], the “Ymin (24 h)” value was “A (Ymin < 50%)” and the DC50 is less than 100 nM.

As to `Cc1cc(O[C@H]2CC[C@H](CCC(=O)N3CCN(c4ccc5c(C6CCC(=O)NC6=O)nn(C)c5c4)CC3)CC2)ccc1-c1ccc(N2CCc3cccc(C(=O)Nc4nc5ccccc5s4)c3C2)nc1C(=O)O` (stereo partly drawn) [Compound 251a, 6-(8-(benzo[d]thiazol-2-ylcarbamoyl)-3,4-dihydroisoquinolin-2(1H)-yl)-3-(4-(((1r,4r)-4-(3-(4-(3-(2,6-dioxopiperidin-3-yl)-1-methyl-1H-indazol-6-yl)piperazin-1-yl)-3-oxopropyl)cyclohexyl)oxy)-2-methylphenyl)picolinic acid], the “Ymin (24 h)” value was “A (Ymin < 50%)” and the DC50 was less than 100 nM.

In the case of `Cc1cc(O[C@H]2CC[C@H](CCC(=O)N3CCN(c4cccc5c(C6CCC(=O)NC6=O)nn(C)c45)CC3)CC2)ccc1-c1ccc(N2CCc3cccc(C(=O)Nc4nc5ccccc5s4)c3C2)nc1C(=O)O` (stereo partly drawn) [Compound 252a, 6-(8-(benzo[d]thiazol-2-ylcarbamoyl)-3,4-dihydroisoquinolin-2(1H)-yl)-3-(4-(((1r,4r)-4-(3-(4-(3-(2,6-dioxopiperidin-3-yl)-1-methyl-1H-indazol-7-yl)piperazin-1-yl)-3-oxopropyl)cyclohexyl)oxy)-2-methylphenyl)picolinic acid], the “Ymin (24 h)” value is reported as “A (Ymin < 50%)” and the DC50 is less than 100 nM.

Consider `Cc1c(O[C@H]2CC[C@H](CCC(=O)N3CCC(c4cccc5c(C6CCC(=O)NC6=O)nn(C)c45)CC3)CC2)cccc1-c1ccc(N2CCc3cccc(C(=O)Nc4nc5ccccc5s4)c3C2)nc1C(=O)O` (stereo partly drawn) [Compound 253a, 6-(8-(benzo[d]thiazol-2-ylcarbamoyl)-3,4-dihydroisoquinolin-2(1H)-yl)-3-(3-(((1r,4r)-4-(3-(4-(3-(2,6-dioxopiperidin-3-yl)-1-methyl-1H-indazol-7-yl)piperidin-1-yl)-3-oxopropyl)cyclohexyl)oxy)-2-methylphenyl)picolinic acid], for which the “Ymin (24 h)” value is given as “B (50% ≤ Ymin < 70%)” and the DC50 lay within 100 to 1000 nM.

`Cc1cc(O[C@H]2CC[C@H](CCCN3CCN(c4ccc5c(C6CCC(=O)NC6=O)nn(C)c5c4)CC3)CC2)ccc1-c1ccc(N2CCc3cccc(C(=O)Nc4nc5ccccc5s4)c3C2)nc1C(=O)O` (stereo partly drawn) [Compound 254a, 6-(8-(benzo[d]thiazol-2-ylcarbamoyl)-3,4-dihydroisoquinolin-2(1H)-yl)-3-(4-(((1s,4r)-4-(3-(4-(3-(2,6-dioxopiperidin-3-yl)-1-methyl-1H-indazol-6-yl)piperazin-1-yl)propyl)cyclohexyl)oxy)-2-methylphenyl)picolinic acid]: the “Ymin (24 h)” value is “A (Ymin < 50%)” and the DC50 is less than 100 nM.

Regarding `Cc1c(OCCCC2CCN(CCN3CCC(c4ccc5c(C6CCC(=O)NC6=O)nn(C)c5c4)CC3)CC2)cccc1-c1ccc(N2CCc3cccc(C(=O)Nc4nc5ccccc5s4)c3C2)nc1C(=O)O` (stereo not drawn) [Compound 255, 6-[8-(1,3-benzothiazol-2-ylcarbamoyl)-3,4-dihydro-1H-isoquinolin-2-yl]-3-[3-[3-[1-[2-[4-[3-(2,6-dioxo-3-piperidyl)-1-methyl-indazol-6-yl]-1-piperidyl]ethyl]-4-piperidyl]propoxy]-2-methyl-phenyl]pyridine-2-carboxylic acid], the “Ymin (24 h)” value is “A (Ymin < 50%)” and the DC50 was less than 100 nM.

With `Cc1c(OCCCC2CCN(CCN3CCC(c4cccc5c(C6CCC(=O)NC6=O)nn(C)c45)CC3)CC2)cccc1-c1ccc(N2CCc3cccc(C(=O)Nc4nc5ccccc5s4)c3C2)nc1C(=O)O` (stereo not drawn) [Compound 256, 6-[8-(1,3-benzothiazol-2-ylcarbamoyl)-3,4-dihydro-1H-isoquinolin-2-yl]-3-[3-[3-[1-[2-[4-[3-(2,6-dioxo-3-piperidyl)-1-methyl-indazol-7-yl]-1-piperidyl]ethyl]-4-piperidyl]propoxy]-2-methyl-phenyl]pyridine-2-carboxylic acid], the “Ymin (24 h)” value is recorded as “A (Ymin < 50%)” and the DC50 was less than 100 nM.

For `Cc1c(OCCCCC2CCN(CC3CCN(c4ccc5c(C6CCC(=O)NC6=O)nn(C)c5c4)CC3)CC2)cccc1-c1ccc(N2CCc3cccc(C(=O)Nc4nc5ccccc5s4)c3C2)nc1C(=O)O` (stereo not drawn) [Compound 257, 6-[8-(1,3-benzothiazol-2-ylcarbamoyl)-3,4-dihydro-1H-isoquinolin-2-yl]-3-[3-[4-[1-[[1-[3-(2,6-dioxo-3-piperidyl)-1-methyl-indazol-6-yl]-4-piperidyl]methyl]-4-piperidyl]butoxy]-2-methyl-phenyl]pyridine-2-carboxylic acid], the “Ymin (24 h)” value is given as “A (Ymin < 50%)” and the DC50 was less than 100 nM.

Regarding `Cc1c(OCCC2CCN(CC3CCN(c4ccc5c(C6CCC(=O)NC6=O)nn(C)c5c4)CC3)CC2)cccc1-c1ccc(N2CCc3cccc(C(=O)Nc4nc5ccccc5s4)c3C2)nc1C(=O)O` (stereo not drawn) [Compound 258, 6-[8-(1,3-benzothiazol-2-ylcarbamoyl)-3,4-dihydro-1H-isoquinolin-2-yl]-3-[3-[2-[1-[[1-[3-(2,6-dioxo-3-piperidyl)-1-methyl-indazol-6-yl]-4-piperidyl]methyl]-4-piperidyl]ethoxy]-2-methyl-phenyl]pyridine-2-carboxylic acid], the “Ymin (24 h)” value was “A (Ymin < 50%)” and the DC50 is less than 100 nM.

Turning to `Cc1c(O[C@H]2CC[C@H](CCC(=O)N3CCC(c4ccc5c(C6CCC(=O)NC6=O)nn(C)c5c4)CC3)CC2)cccc1-c1ccc(N2CCc3cccc(C(=O)Nc4nc5ccccc5s4)c3C2)nc1C(=O)O` (stereo partly drawn) [Compound 259a, 6-(8-(benzo[d]thiazol-2-ylcarbamoyl)-3,4-dihydroisoquinolin-2(1H)-yl)-3-(3-(((1r,4r)-4-(3-(4-(3-(2,6-dioxopiperidin-3-yl)-1-methyl-1H-indazol-6-yl)piperidin-1-yl)-3-oxopropyl)cyclohexyl)oxy)-2-methylphenyl)picolinic acid], the “Ymin (24 h)” value is reported as “A (Ymin < 50%)” and the DC50 is less than 100 nM.

On to `Cc1c(OCCCN2CCN(CC3CCC4(CC3)CN(c3cccc5c(C6CCC(=O)NC6=O)nn(C)c35)C4)CC2)cccc1-c1ccc(N2CCc3cccc(C(=O)Nc4nc5ccccc5s4)c3C2)nc1C(=O)O` (stereo not drawn) [Compound 260, 6-(8-(benzo[d]thiazol-2-ylcarbamoyl)-3,4-dihydroisoquinolin-2(1H)-yl)-3-(3-(3-(4-((2-(3-(2,6-dioxopiperidin-3-yl)-1-methyl-1H-indazol-7-yl)-2-azaspiro[3.5]nonan-7-yl)methyl)piperazin-1-yl)propoxy)-2-methylphenyl)picolinic acid], for which the “Ymin (24 h)” value is “A (Ymin < 50%)” and the DC50 was less than 100 nM.
